Source: EP3222712A1, “ALCOHOL DEHYDROGENASE FROM PICHIA PASTORIS AND USE THEREOF” (priority 2016, dated 2017)

Molecular target: alcohol dehydrogenase from Pichia pastoris (PPADH) (Komagataella phaffii, UniProt C4R4L0)
Experiment: photometric assay, reduction of aldehydes and ketones by purified PPADH (NADPH, 340 nm)
Assay type: biochemical, Pichia pastoris GS 115
Conditions: for relative activity: 38.6 U/mg with benzaldehyde set to 100%; for specific activity: purified PPADH, 10 mM substrate (sample 4: 20 mM), 0.2 mM NADPH, tris HCl pH 7, 25°C
Method: In a first step, crude extract containing recombinant alcohol dehydrogenase from Pichia pastoris via cell disruption of E. coli BL21(DE3) overexpressing in vector pET28a-PPADH carrying an N-terminal 6xHis tag. Cells were resuspended in 10 mM tris HCl buffer (pH 7) to yield a 25% cell suspension and were disrupted by sonification under cooling. Three cycles of 2 min of 25% power output followed by 1 min cooling were used. After repeated centrifugation a cell-free crude extract was obtained. Afterwards the PPADH was purified as described in example 3c).
Determination of the enzymatic activity of the purified PPADH can be determined via a oxidation or reduction reaction. For determination of the reduction the following compounds were used: tris HCl buffer (100 mM, pH 7), 0.2 mM NADPH, 10 mM substrate selected from the aldehydes and ketones as given in Table 2 and 10 µl enzyme (purified PPADH). For determination of the oxidation the following compounds were used: tris HCl buffer (100 mM, pH 9), 0.2 mM NADP^+, 10 mM substrate selected from the alcohols as given in Table 3 and 10 µl enzyme (purified PPADH). The reaction was performed in 1 cm-cuvettes. The compounds were mixed in the cuvette used for the experiment, which was placed in the photometer and data recording was started. The enzyme solution was added only immediately before the start of the measurement. The activity of the enzyme was determined by photometric detection of the concentration of NADPH after a certain time interval. Measurement was carried out at a temperature of 25°C, a wavelength of 340 nm and over a time interval of 1 min. Table 2: enzymatic activity of PPADH regarding the reduction of different substrates determined by photometry

Chain of alcohol dehydrogenase from Pichia pastoris (PPADH) (C4R4L0 entry or part of it): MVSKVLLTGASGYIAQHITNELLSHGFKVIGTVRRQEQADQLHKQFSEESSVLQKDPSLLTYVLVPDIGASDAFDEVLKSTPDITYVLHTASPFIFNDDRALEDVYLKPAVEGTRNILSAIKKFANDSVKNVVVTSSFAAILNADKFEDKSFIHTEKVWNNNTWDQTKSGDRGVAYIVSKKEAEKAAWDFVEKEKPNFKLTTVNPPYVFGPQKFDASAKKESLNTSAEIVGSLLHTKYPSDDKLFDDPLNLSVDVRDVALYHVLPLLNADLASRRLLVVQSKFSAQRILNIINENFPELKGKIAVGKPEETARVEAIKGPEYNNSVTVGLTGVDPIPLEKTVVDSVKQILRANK

Structure (SMILES)	relative activity	specific activity
CC(=O)CC(O)(c1ccccc1)C(F)(F)F (racemic) [compound 4]	97.2%	37.5 U/mg
CCCCC(C)=O [2-hexanone]	–	< 0.5 U/mg
CCCCCCCC(C)=O [2-nonanone]	–	< 0.5 U/mg
CCCCCCC(C)=O [2-octanone]	–	< 0.5 U/mg
CC1CC(=O)CC(C)(C)C1 (stereo not drawn) [3,3,5-trimethylcyclohexanone]	–	< 0.5 U/mg
CCC(=O)C(O)CC (stereo not drawn) [4-hydoxy-3-hexanone]	–	< 0.5 U/mg
COC(C)(C)CC(C)=O [4-methoxy-4-metyhl-2-pentanone]	–	< 0.5 U/mg
CC(=O)CC(C)C [4-methyl-2-pentanone]	–	< 0.5 U/mg
CC(C)=C1CC[C@@H](C)CC1=O [(+)-pulegon]	–	< 0.5 U/mg
C=C(C)[C@@H]1CC=C(C)C(=O)C1 [(-)-carvone]	–	< 0.5 U/mg
CC(C)[C@@H]1CC[C@@H](C)CC1=O [(-)-menthone]	–	< 0.5 U/mg
CC(C)=O [acetone]	–	< 0.5 U/mg
CC(=O)CCc1ccccc1 [benzylacetone]	–	< 0.5 U/mg
O=Cc1ccccc1 [compound 1, benzaldehyde]	100.0%	38.6 U/mg
CC(=O)c1ccccc1 [compound 2]	0.2%	0.06 U/mg
O=C(c1ccccc1)C(F)(F)F [compound 3]	0.3%	0.10 U/mg

Structure (SMILES)	relative activity	specific activity
CCCC=O [compound 5]	176.2%	68.0 U/mg
CCCC(C)C=O (stereo not drawn) [compound 6]	248.9%	96.1 U/mg
CCCCCC=O [compound 7]	73.9%	28.5 U/mg
CCC/C=C/C=O [compound 8]	97.2%	37.5 U/mg
CC(C)=CCC/C(C)=C/C=O [compound 9]	46.1%	17.8 U/mg
CC(C)=CCCC(C)CC=O (stereo not drawn) [compound 10]	71.9%	27.8 U/mg
CCOC(=O)C(Cl)C(C)=O (stereo not drawn) [compound 11]	14.7%	5.7 U/mg
CCOC(=O)CC(=O)CCl [compound 12]	98.3%	38.0 U/mg
CCCC(=O)CC(=O)OCC [compound 13]	1.3%	0.5 U/mg
CC(=O)CC(C)=O [compound 14]	8.5%	3.3 U/mg
O=C1C=CCCC1 [cyclohexen-1-on]	–	< 0.5 U/mg
CC1(C)COC(=O)C1=O [dihydro-4,4-dimethyl-2,3-furandion]	–	< 0.5 U/mg
CCOC(C)=O [ethylacetate]	–	< 0.5 U/mg
CC12CCC(C1)C(C)(C)C2=O (stereo not drawn) [fenchon]	–	< 0.5 U/mg
CCC(=O)c1ccccc1 [propiophenone]	–	< 0.5 U/mg
